Where “and” joins values, the source holds several entries; their conditions need not be identical. Identical values can stand only once.
Key:
[1] = system: advanced NSCLC patients; assay: PROSE study: second-line erlotinib versus chemotherapy, OS and PFS by VS2.0/VS1.0 classification; assay type: in vivo, human
Description: The final CMC/D classifier described above was subject to a test on mass spectra obtained from available samples from the PROSE study under a validation protocol. The final CMC/D classifier was deemed fixed prior to this validation protocol. Mass spectra were provided to analysts blinded to their clinical data. The spectra were analyzed as described above and the resulting classifications (Appendix G) were generated. An un-blinding key was then provided and a statistical analysis was carried out.
For patient 01—044 and patient 01—080, two samples were available. […] No samples were available for patient 01—050, patient 03—006, patient 06—004, patient 06—021, patient 11—043, patient 11—048, and patient 12—014.

[2] = system: advanced NSCLC patients; conditions: PROSE, patients classified as VSP (VS1.0); cited from earlier work
[3] = system: advanced NSCLC patients; assay: Time-to-event outcomes (OS, PFS) of development set patients (Italian A, B, C cohorts) grouped by VS2.0/VS1.0 classification; assay type: in vivo, human; conditions: for Cox HR (95% CI), OS / Cox HR (95% CI), PFS / Median OS / Median PFS: development set
Description: The following cohorts of patients had samples available for this project: sample sets known as “Italian A”, “Italian B”, “Italian C.” Italian A and B were cohorts of patients with advanced NSCLC treated with gefitinib used in the development and validation of the original VeriStrat test. See generally, U.S. Pat. No. 7,736,905; Taguchi et al., JNCI 99: 838-846 (2007). Italian C was a cohort of patients treated in advanced line with a variety of chemotherapy regimens.
The VS2.0 final classifier was applied to all samples in the development set. Note that this includes samples included in training of the classifier. The VS2.0 classifications of the development set samples are given in Appendix E. Notice that all samples with a VS1.0 classification of Poor were assigned a label of Early. OS and PFS are plotted for patients in the development set grouped according to: Late, Unknown and Early (excluding VS1.0 Poor) and VS 1.0 Poor in FIG. 6. Note that several patients in the Italian C cohort had OS data, but no PFS data. FIG. 6 is a plot of time-to-event outcomes of patients in the development set with labels assigned from development set spectra; FIG. 6A: OS for gefitinib-treated patients, FIG. 6B: PFS for gefitinib-treated patients, FIG. 6C: OS for chemotherapy-treated patients and FIG. 6D PFS for chemotherapy-treated patients.

[4] = group Early/Unknown (VS1.0 Good)
[5] = comparison Early/Unk vs Late within treatment
[6] = comparison Poor vs Early/Unk within treatment
[7] = comparison Poor vs Late within treatment
[8] = group Early/Unknown (excluding VS1.0 Poor)

SMILES: C#Cc1cccc(Nc2ncnc3cc(OCCOC)c(OCCOC)cc23)c1 [ERL, erlotinib]
- Median OS [1, 4]: 9.6 months
- Median PFS [1, 4]: 2.3 months
- Median OS ([1]; group Late): 17.1 months
- Median PFS ([1]; group Late): 3.9 months
- Median OS ([1]; group Late, listed as erlotinib): 17.1 months and 17 months
- Median OS ([1]; group VS1.0 Poor): 3.1 months
- Median PFS ([1]; group VS1.0 Poor): 1.7 months
- HR (95% CI), OS, Treatment: CT vs ERL ([1]; multivariate analysis of VS1.0 Good population): 1.12 (0.85-1.65)
- Survival, erlotinib versus chemotherapy [2]: better survival on chemotherapy versus erlotinib

SMILES: COc1cc2ncnc(Nc3ccc(F)c(Cl)c3)c2cc1OCCCN1CCOCC1 [GEF, gefitinib]
- Cox HR (95% CI), OS [3, 5]: 0.59 (0.37-0.94)
- Cox HR (95% CI), PFS [3, 5]: 0.58 (0.37-0.91)
- Cox HR (95% CI), OS [3, 6]: 0.49 (0.33-0.75)
- Cox HR (95% CI), PFS [3, 6]: 0.64 (0.42-0.95)
- Cox HR (95% CI), OS [3, 7]: 0.30 (0.18-0.49)
- Cox HR (95% CI), PFS [3, 7]: 0.36 (0.22-0.60)
- Median OS [3, 8]: 243 days
- Median PFS [3, 8]: 92 days
- Median OS ([3]; group Late): 457 days
- Median PFS ([3]; group Late): 208 days
- Median OS ([3]; group VS1.0 Poor): 96.5 days
- Median PFS ([3]; group VS1.0 Poor): 61.5 days
- Benefit by overall survival curves, gefitinib versus chemotherapy ([3]; patients whose sample tested Late, FIGS. 6A and 6C): greater benefit from gefitinib than chemotherapy

Source: patent US9211314B2, “Treatment selection for lung cancer patients using mass spectrum of blood-based sample” (Biodesix, Inc., priority 2014, dated 2015)
